# Reference: ChEMBL document CHEMBL4118141, “Design, synthesis and biological evaluation of novel hydrogen sulfide releasing capsaicin derivatives” (Bioorg Med Chem, 2018)
# Active and inactive are the calls of the source. The calls are words filed in the database; no cut-off is given here.
# Columns and labels:
# MCF7 = test: Antiproliferative activity against human MCF7 cells after 48 hrs by MTT assay; format: functional, cell-based; settings: MCF7, 48 h
# Mus musculus [1] = test: Ulcerogenic activity in Kunming mouse assessed as lesion in stomach at 30 mg/kg, po qd for 6 days measured on day 7 by microscopic analysis; format: toxicity, organism-based; settings: in vivo, 144 h
# K562 = test: Antiproliferative activity against human K562 cells after 48 hrs by MTT assay; format: functional, cell-based; settings: K562, 48 h
# Mus musculus [2] = test: Antinociceptive activity in Kunming mouse model assessed as inhibition of acetic acid-induced writhes at 60 mg/kg, po pretreated for 30 mins followed by acetic acid challenge measured for 15 mins post acetic acid challenge; format: functional, organism-based
# HeLa = test: Antiproliferative activity against human HeLa cells after 48 hrs by MTT assay; format: functional, cell-based
# Mus musculus [3] = test: Antinociceptive activity in capsaicin-induced nociception pain Kunming mouse model assessed as reduction in time spent in paw licking at 60 mg/kg, po pretreated for 30 mins followed by capsaicin challenge measured for 5 mins post capsaicin challenge; format: functional, organism-based
# [4] = target: Transient receptor potential cation channel subfamily V member 1 (Homo sapiens) (UniProt Q8NER1); test: Agonist activity at human TRPV1 expressed in HEK293 cells assessed as increase in calcium influx by measuring ratio of 340/380 nm excitatory wavelength at 10 uM treated for 2 mins by Fura-2AM dye-based fluorescence assay; format: cell-based
# Chain of Transient receptor potential cation channel subfamily V member 1 (Homo sapiens) (Q8NER1 whole entry): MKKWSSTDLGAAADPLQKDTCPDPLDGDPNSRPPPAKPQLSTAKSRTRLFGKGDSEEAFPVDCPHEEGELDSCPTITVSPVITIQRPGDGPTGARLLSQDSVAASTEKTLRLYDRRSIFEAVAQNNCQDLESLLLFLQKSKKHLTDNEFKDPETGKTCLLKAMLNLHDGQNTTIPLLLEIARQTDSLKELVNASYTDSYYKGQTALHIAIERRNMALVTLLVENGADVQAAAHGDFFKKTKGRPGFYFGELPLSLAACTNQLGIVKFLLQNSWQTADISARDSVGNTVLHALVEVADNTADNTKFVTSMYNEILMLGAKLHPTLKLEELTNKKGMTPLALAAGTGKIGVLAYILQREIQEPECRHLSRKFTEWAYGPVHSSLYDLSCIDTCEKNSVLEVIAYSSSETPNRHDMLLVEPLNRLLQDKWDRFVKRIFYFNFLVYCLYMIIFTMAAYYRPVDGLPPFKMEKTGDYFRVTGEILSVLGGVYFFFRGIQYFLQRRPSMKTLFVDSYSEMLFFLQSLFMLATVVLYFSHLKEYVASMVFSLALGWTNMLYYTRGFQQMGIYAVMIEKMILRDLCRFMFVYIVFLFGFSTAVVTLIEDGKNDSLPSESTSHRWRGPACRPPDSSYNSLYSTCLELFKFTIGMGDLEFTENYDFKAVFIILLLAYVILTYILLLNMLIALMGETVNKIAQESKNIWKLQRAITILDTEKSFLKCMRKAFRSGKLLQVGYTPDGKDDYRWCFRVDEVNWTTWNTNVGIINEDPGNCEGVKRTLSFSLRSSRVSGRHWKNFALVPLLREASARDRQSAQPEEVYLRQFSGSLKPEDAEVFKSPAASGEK
# Mus musculus [5] = test: Antinociceptive activity in Kunming mouse model of thermal-induced nociception assessed as increase in latency to tail withdrawal at 60 mg/kg, po by tail flick test; format: functional, organism-based
# [6] = Acute toxicity in po dosed CD rat measured for 7 days; format: organism-based; settings: in vivo
Structure (SMILES),IC50 (MCF7),Activity (Mus musculus [1]),IC50 (K562),inhibition (Mus musculus [2]),IC50 (HeLa),Activity (Mus musculus [3]),Ratio [4],Activity (Mus musculus [5]),LD50 at 168 h [6]
COc1cc(CNC(=O)CCCC/C=C/C(C)C)ccc1OC(=O)CCC(=O)Oc1ccc(C(N)=S)cc1,> 50 µM,Non-Toxic,> 50 µM,Active,> 50 µM,Active,1.94,,
COc1cc(CNC(=O)CCCCCCC(C)C)ccc1OCCCCCOc1ccc(-c2cc(=S)ss2)cc1,48.6 µM,,> 50 µM,Active,> 50 µM,Active,1.69,,
COc1cc(CNC(=O)CCCCCCC(C)C)ccc1OC(=O)c1ccc(C(N)=S)cc1,> 50 µM,,> 50 µM,Active,> 50 µM,Active,1.69,,
COc1cc(CNC(=O)CCCCCCC(C)C)ccc1OC(=O)CCC(=O)Oc1ccc(C(N)=S)cc1,,,,Active,> 50 µM,Active,1.87,,
COc1cc(CNC(=O)CCCC/C=C/C(C)C)ccc1OC(=O)c1ccc(C(N)=S)cc1,39.4 µM,Non-Toxic,> 50 µM,Active,39.6 µM,Active,1.77,,
COc1cc(CNC(=O)CCCC/C=C/C(C)C)ccc1OCCCCCOc1ccc(-c2cc(=S)ss2)cc1,> 50 µM,,> 50 µM,Active,> 50 µM,Active,1.71,,
COc1cc(CNC(=O)CCCC/C=C/C(C)C)ccc1OCCCCOc1ccc(-c2cc(=S)ss2)cc1,36.4 µM,Non-Toxic,> 50 µM,Active,47.1 µM,Active,1.96,Active,
COc1cc(CNC(=O)CCCC/C=C/C(C)C)ccc1OCCCCCOc1ccc(C(N)=S)cc1,17.2 µM,,> 50 µM,Active,46.4 µM,Active,1.87,,
COc1cccc2c1C(=O)c1c(O)c3c(c(O)c1C2=O)C[C@@](O)(C(=O)CO)C[C@@H]3O[C@H]1C[C@H](N)[C@H](O)[C@H](C)O1 [DOXORUBICIN],,,1.51 µM,,0.451 µM,,,,
COc1cc(CNC(=O)CCCCCCC(C)C)ccc1OC(=O)CCC(=O)Oc1ccc(-c2cc(=S)ss2)cc1,2.56 µM,,5.93 µM,Active,5.53 µM,Active,1.96,,
COc1cc(CNC(=O)CCCC/C=C/C(C)C)ccc1O [CAPSAICIN],50 µM,Toxic,49.4 µM,,> 50 µM,,,,161 mg/kg
COc1cc(CNC(=O)CCCCCCC(C)C)ccc1O [DIHYDROCAPSAICIN],> 50 µM,,> 50 µM,,> 50 µM,,2,,
CC(C)(C)c1ccc(NC(=O)N2CCN(c3ncccc3Cl)CC2)cc1,,,,,,,,Active,
COc1cc(CNC(=O)CCCCCCC(C)C)ccc1OCCCCCOc1ccc(C(N)=S)cc1,49.3 µM,,> 50 µM,Active,> 50 µM,Active,1.76,,
COc1cc(CNC(=O)CCCC/C=C/C(C)C)ccc1OC(=O)CCC(=O)Oc1ccc(-c2cc(=S)ss2)cc1,2.12 µM,Non-Toxic,4.45 µM,Active,4.25 µM,Active,2.1,Active,
COc1cc(CNC(=O)CCCCCCC(C)C)ccc1OCCCCOc1ccc(-c2cc(=S)ss2)cc1,49.5 µM,,> 50 µM,Active,44.6 µM,Active,1.69,,
COc1cc(CNC(=O)CCCCCCC(C)C)ccc1OCCCCOc1ccc(C(N)=S)cc1,4.99 µM,,> 50 µM,Active,40.7 µM,Active,1.59,,
COc1cc(CNC(=O)CCCC/C=C/C(C)C)ccc1OCCCCOc1ccc(C(N)=S)cc1,49.8 µM,,> 50 µM,Active,> 50 µM,Active,1.7,,
